Where two headings read alike, the source gives them in different places.
How the values were obtained:
Type in all cases: cell-based
[1] = test system: Acinetobacter baumannii; assay: MIC of ceftazidime by E-test in A. baumannii strains; settings: read-out: MIC determined by E-test
[2] = test system: Acinetobacter baumannii; assay: Cell enlargement after one hour incubation with antibiotic (microgel, SYBR Gold, fluorescence microscopy), A. baumannii
Protocol: Each dose was correlated to susceptibility breakpoints established in Example 1. The incubated samples were then assessed under microscopy for enlargement. The criterion of enlargement/non-enlargement was determined by a comparison to a control dose of 0 μg/ml. […] Using the criterion of enlargement/non-enlargement and the correlated breakpoint concentrations, each of the 320 strains were correctly identified.

[3] = test system: Klebsiella pneumoniae; assay: Cell enlargement after incubation with antibiotic, K. pneumoniae; settings: correlated to CLSI MIC≤4 μg/ml
Protocol: Klebsiella pneumoniae, another significant pathogen in clinical settings, was also evaluated. […] Strains were considered to be resistant when no cell enlargement was presented at either concentration.

[4] = test system: Pseudomonas aeruginosa; assay: Cell enlargement after one hour incubation with antibiotic, P. aeruginosa
Protocol: Pseudomonas aeruginosa, a common source of dangerous nosocomial infections, was also evaluated. […] Those correlated breakpoint concentrations for enlargement were 0.5 μg/ml for susceptible strains and greater than 1.0 μg/ml for resistant strains.
P. aeruginosa was evaluated for the effect of carbapenems, meropenem and imipenem, which we corroborate that induce cell enlargement in the susceptible strains of this bacterium. CLSI breakpoint concentrations of susceptibility and resistance correspond to MICs≤2-≥8 μg/ml, respectively. For cell enlargement, the new breakpoint concentrations were much lower: ≤0.2->0.5 μg/ml, for susceptibility and resistance, respectively. One hundred and thirty strains of P. aeruginosa were studied, obtaining 97 susceptible, 14 intermediate and 19 resistant to meropenem, following the standard criterion of growth affectation as indicated by MIC-CL SI. All these strains were correctly categorized when using the new breakpoints for enlargement/non-enlargement.

Row | SMILES | MIC ([1]; highly resistant strain of A. baumannii (FIG. 2, fourth row)) [mg/L] | MIC ([1]; intermediate strain of A. baumannii (FIG. 2, second row)) [mg/L] | MIC ([1]; susceptible strain of A. baumannii (FIG. 2, first row)) [mg/L] | breakpoint concentration for cell enlargement, intermediate ([2]; empirically correlated to CLSI MIC breakpoint 16 μg/ml) [µg/mL] | breakpoint concentration for cell enlargement, susceptible ([2]; empirically correlated to CLSI MIC breakpoint ≤8 μg/ml) [µg/mL] | breakpoint concentration for cell enlargement, resistant ([2]; empirically correlated to CLSI MIC breakpoint ≥32 μg/ml) [µg/mL] | cell enlargement ([2]; highly resistant strain, 1 h incubation, tested 2, 4, 8 μg/ml) | concentration from which cell enlargement is demonstrated ([2]; intermediate strain, 1 h incubation, tested 2, 4, 8 μg/ml) [µg/mL] | concentration from which cell enlargement is demonstrated ([2]; resistant strain, 1 h incubation, tested 2, 4, 8 μg/ml) [µg/mL] | concentration from which cell enlargement is demonstrated ([2]; susceptible strain, 1 h incubation, tested 2, 4, 8 μg/ml) [µg/mL] | breakpoint concentration for cell enlargement, susceptible strains [3] [µg/mL] | cell enlargement, resistant strains ([4]; 1 h incubation with 0.5 μg/ml and 1 μg/ml, 5 strains) | cell enlargement, intermediate strains ([4]; 1 h incubation with 0.5 μg/ml and 1 μg/ml, 8 strains) | cell enlargement, susceptible strains ([4]; 1 h incubation with 0.5 μg/ml and 1 μg/ml, 117 strains) | breakpoint concentration for cell enlargement, susceptible strains ([4]; ceftazidime, correlated to CLSI MIC≤8 μg/ml) [µg/mL] | breakpoint concentration for cell enlargement, resistant strains ([4]; ceftazidime, correlated to CLSI MIC≥32 μg/ml) | cell enlargement, intermediate strains ([4]; incubation with 0.2 μg/ml and 0.5 μg/ml, 14 strains) | cell enlargement, resistant strains ([4]; incubation with 0.2 μg/ml and 0.5 μg/ml, 19 strains) | cell enlargement, susceptible strains ([4]; incubation with 0.2 μg/ml and 0.5 μg/ml, 97 strains)
1 | CC(C)(O/N=C(\C(=O)N[C@@H]1C(=O)N2C(C(=O)[O-])=C(C[n+]3ccccc3)CS[C@H]12)c1csc(N)n1)C(=O)O [ceftazidime] | > 256 | 12 | 2.5 | 4 | ≤ 2 | ≥ 8 | did not demonstrate enlargement at any tested concentration | 8 | 8 | 2 | 0.5 | never appeared enlarged | only after 1 μg/ml | appeared enlarged | 0.5 | greater than 1.0 μg/ml |  |  | 
2 | C[C@@H](O)[C@H]1C(=O)N2C(C(=O)O)=C(S[C@@H]3CN[C@H](C(=O)N(C)C)C3)[C@H](C)[C@H]12 [meropenem] |  |  |  |  |  |  |  |  |  |  |  |  |  |  |  |  | only after 0.5 μg/ml | never appeared enlarged | appeared enlarged

From patent US12221646B2, “Method for the rapid determination of susceptibility or resistance of bacteria to antibiotics” (ABM TECHNOLOGIES, LLC, priority 2013, dated 2025)
